Data taken from paper PMC3371050, “Characterisation of a Novel White Laccase from the Deuteromycete Fungus Myrothecium verrucaria NF-05 and Its Decolourisation of Dyes” (PLoS ONE, 2012).
Read-outs that look alike come from different tables or passages of the source.

What was measured:
Details in all cases: 0.2 M citric acid pH 4.0, 30°C
[1] = system: T1, white laccase from Myrothecium verrucaria NF-05; assay: oxidation at […] nm, Lineweaver-Burk; format: biochemical, Albifimbria verrucaria
T1 construct: native extracellular enzyme purified from culture medium; about 66 kDa monomer; 3 Cu and 1 Fe per molecule; no bilirubin oxidase activity detected in the fermentation liquid

[2] = system: white laccase from Myrothecium verrucaria NF-05
[3] = system: white laccase from Myrothecium verrucaria NF-05; remark: listed apart in the source
[4] = system: T1, white laccase from Myrothecium verrucaria NF-05; assay: oxidation at […] nm, Lineweaver-Burk; format: biochemical, Albifimbria verrucaria; remark: listed apart in the source

COc1ccccc1O [guaiacol]
Km [1]: 312 µM

Oc1ccc(O)cc1 [hydroquinone]
Km [2]: 2090 µM

CCn1c(=NN=c2sc3cc(S(=O)(=O)O)ccc3n2CC)sc2cc(S(=O)(=O)O)ccc21 [ABTS, 2,2′-azinobis-(3-ethylbenzothiazoline-6-sulphonic acid)]
Km [3]: 85.9 µM

Oc1ccccc1O [catechol]
Km [4]: 329 µM
